Assay results from patent US10858335B2 (Rigel Pharmaceuticals, Inc., priority 2014, dated 2020).

These molecules were tested on GDF8 signaling (p-SMAD-3 (Ser423/425)) (assay: AlphaScreen SureFire SMAD3 (p-Ser423/425) assay, GDF8-stimulated cells (GDF pSMAD)). Conditions: MPC11; GDF8-stimulated; p-SMAD3 AlphaScreen; read-out: GDF pSMAD (MPC11) (inhibition of GDF8 signaling).
Format: cell-based
`Cc1cc(-c2ncccc2-c2ccc3ncn(CCCN4CCN(C)CC4)c3c2)ccc1F` [Compound 40, 6-(2-(4-Fluoro-3-methylphenyl)pyridin-3-yl)-1-(3-(4-methylpiperazin-1-yl)propyl)-1H-benzo[d]imidazole] was tested, and the IC50 was 18.5 µM.
`Cc1cc(-c2ncccc2-c2ccc3ncc(C(=O)NC4CC5CCC(C4)N5C)n3c2)ccc1F` (stereo not drawn) [compound 713, endo-6-(2-(4-Fluoro-3-methylphenyl)pyridin-3-yl)-N-(8-methyl-8-azabicyclo[3.2.1]octan-3-yl)imidazo[1,2-a]pyridine-3-carboxamide] gave an IC50 of 10.2 µM.

Same assay, conditions: Mus musculus, MPC-11, GDF8-stimulated pSMAD3, MPC11; tested as the salt form given; read-out: GDF pSMAD (MPC11) (μM), inhibition of GDF8 signaling
`Nc1ncnc2ccc(-c3cc(F)cnc3-c3cccc(O)c3)cc12` [compound 1000, 3-(3-(4-aminoquinazolin-6-yl)-5-fluoropyridin-2-yl)phenol] showed an IC50 of 6.5 µM.
`Cc1cc(-c2ncccc2-c2ccc3ncnc(NCC(N)=O)c3c2)ccc1F` [compound 1026, 2-((6-(2-(4-fluoro-3-methylphenyl)pyridin-3-yl)quinazolin-4-yl)amino)acetamide] was tested, and the IC50 was 0.737 µM.
In the case of `Cc1c(F)cc(C(F)F)cc1-c1ncccc1-c1ccc2ncnc(N)c2c1` [compound 1034, 6-(2-(5-(difluoromethyl)-3-fluoro-2-methylphenyl)pyridin-3-yl)quinazolin-4-amine], the IC50 is reported as 0.342 µM.
With `Cc1cc(-c2ncccc2-c2ccc3ncnc(N)c3c2)c(Cl)cc1F` [compound 1012, 6-(2-(2-chloro-4-fluoro-5-methylphenyl)pyridin-3-yl)quinazolin-4-amine] the IC50 was 0.728 µM.
`Nc1ncnc2ccc(-c3cccnc3-c3cc(Cl)ccc3F)nc12` [compound 1039] was tested, and the IC50 was 0.0438 µM.

Same assay, conditions: Mus musculus, MPC-11, MPC11; GDF8-stimulated; p-SMAD3 AlphaScreen; read-out: GDF pSMAD (MPC11) (inhibition of GDF8 signaling)
Molecule `Cc1cc(-c2ncccc2-c2ccc3ncccc3n2)ccc1F` [compound 535, 2-(2-(4-Fluoro-3-methylphenyl)pyridin-3-yl)-1,5-naphthyridine] has an IC50 of 0.504 µM.
For `CC(=O)c1cnc2ccc(-c3cccnc3-c3cccc(C4CC4)c3)cn12` [compound 588, 1-(6-(2-(3-Cyclopropylphenyl)pyridin-3-yl)imidazo[1,2-a]pyridin-3-yl)ethan-1-one], the IC50 was 0.316 µM.
In the case of `Fc1ccc(Cl)cc1-c1ncccc1-c1ccc2nccn2c1` [compound 721, 6-(2-(5-Chloro-2-fluorophenyl)pyridin-3-yl)imidazo[1,2-a]pyridine], the IC50 is reported as 0.44 µM.
With `Fc1ccc(-c2ncccc2-c2ccc3ncncc3c2)cc1Cl` [compound 506, 6-(2-(3-Chloro-4-fluorophenyl)pyridin-3-yl)quinazoline] the IC50 was 1.83 µM.
For `Cc1cc(-c2ncccc2-c2ccc3ncc(C(=O)NC4CCNCC4)n3c2)ccc1F` [compound 652, 6-(2-(4-Fluoro-3-methylphenyl)pyridin-3-yl)-N-(piperidin-4-yl)imidazo[1,2-a]pyridine-3-carboxamide], the IC50 was 3.78 µM.
For `Cc1cc(-c2ncccc2-c2ccc3nccnc3n2)ccc1F` [compound 738, 6-(2-(4-Fluoro-3-methylphenyl)pyridin-3-yl)pyrido[2,3-b]pyrazine], the IC50 was 1.38 µM.
`COc1cc(-c2ncccc2-c2ccc3[nH]ncc3c2)ccc1F` [Compound 124, 5-(2-(4-Fluoro-3-methoxyphenyl)pyridin-3-yl)-1H-indazole] was tested, and the IC50 was 0.548 µM.
`Cn1c(=O)cnc2ccc(-c3cccnc3-c3ccc(F)c(Cl)c3)cc21` [compound 887, 7-(2-(3-Chloro-4-fluorophenyl)pyridin-3-yl)-1-methylquinoxalin-2(1H1)-one] was tested, and the IC50 was 1.75 µM.
`Fc1ccc(-c2ncccc2-c2ccc3ncnc(C4CC4)c3c2)cc1Cl` [compound 507, 6-(2-(3-Chloro-4-fluorophenyl)pyridin-3-yl)-4-cyclopropylquinazoline] was tested, and the IC50 was 3.37 µM.
`Cc1cc(-c2ncccc2-c2ccn3ncc(C(=O)NCCO)c3c2)ccc1F` [compound 707, 5-(2-(4-Fluoro-3-methylphenyl)pyridin-3-yl)-N-(2-hydroxyethyl)pyrazolo[1,5-a]pyridine-3-carboxamide] gave an IC50 of 0.222 µM.
In the case of `Cc1cc(-c2ncc(NCc3ccccn3)cc2-c2ccc3nccnc3c2)ccc1F` [compound 246, 6-(4-Fluoro-3-methylphenyl)-N-(pyridin-2-ylmethyl)-5-(quinoxalin-6-yl)pyridin-3-amine], the IC50 is reported as 1.29 µM.
In the case of `CCN(CC)c1ncnc2ccc(-c3cccnc3-c3ccc(F)c(C)c3)cc12` [compound 397, N,N-Diethyl-6-(2-(4-fluoro-3-methylphenyl)pyridin-3-yl)quinazolin-4-amine], the IC50 is reported as 9.41 µM.
With `Cn1cnc2ccc(-c3cccnc3-c3ccc(F)cc3)cc2c1=O` [compound 381, 6-(2-(4-Fluorophenyl)pyridin-3-yl)-3-methylquinazolin-4(3H)-one] the IC50 was 2.61 µM.
With `Fc1cccc(-c2ncccc2-c2ccc3[nH]ncc3c2)c1` [Compound 65, 5-[2-(3-Fluorophenyl)pyridin-3-yl]-1H-indazole] the IC50 was 2.24 µM.
Work on `COC(=O)c1cnc2ccc(-c3cccnc3-c3ccc(F)c(C)c3)cn12` [compound 685, Methyl 6-(2-(4-fluoro-3-methylphenyl)pyridin-3-yl)imidazo[1,2-a]pyridine-3-carboxylate] yielded an IC50 of 0.15 µM.
For `CN1CCC(NC(=O)c2cnc3ccc(-c4cccnc4-c4cc(F)c(F)cc4F)cn23)CC1` [compound 710, N-(1-Methylpiperidin-4-yl)-6-(2-(2,4,5-Trifluorophenyl)pyridin-3-yl)imidazo[1,2-a]pyridine-3-carboxamide], the IC50 was 1.22 µM.
`Cc1ccc(F)c(-c2ncccc2-c2ccn3ncnc3c2)c1` [compound 737, 7-(2-(2-Fluoro-5-methylphenyl)pyridin-3-yl)-[1,2,4]triazolo[1,5-a]pyridine] showed an IC50 of 0.26 µM.
`Cc1cc(-c2ncc(CN3CCOCC3)cc2-c2ccc3nccnc3c2)ccc1F` [compound 225, 4-((6-(4-Fluoro-3-methylphenyl)-5-(quinoxalin-6-yl)pyridin-3-yl)methyl)morpholine] was tested, and the IC50 was 9.46 µM.
With `Fc1cccc(-c2ncccc2-c2ccc3cn[nH]c3c2)c1` [Compound 100, 6-(2-(3-Fluorophenyl)pyridin-3-yl)-1H-indazole] the IC50 was 6.03 µM.
Molecule `Cc1cccc(-c2ncccc2-c2ccc3c(cnn3C)c2)c1` [Compound 146, 1-Methyl-5-(2-m-tolylpyridin-3-yl)-1H-indazole] has an IC50 of 0.621 µM.
Molecule `Cc1cc(-c2ncc(NCc3cccc4cnccc34)cc2-c2ccc3ncsc3c2)ccc1F` [compound 337, 5-(Benzo[d]thiazol-6-yl)-6-(4-fluoro-3-methylphenyl)-N-(isoquinolin-5-ylmethyl)pyridin-3-amine] has an IC50 of 0.479 µM.
Work on `Nc1ncc2ccc(-c3cccnc3-c3ccc(F)c(Cl)c3)cc2n1` [compound 496, 7-(2-(3-Chloro-4-fluorophenyl)pyridin-3-yl)quinazolin-2-amine] yielded an IC50 of 0.783 µM.
`Fc1ccc(Cl)cc1-c1ncccc1-c1ccc2ncsc2c1` [compound 717, 6-(2-(5-Chloro-2-fluorophenyl)pyridin-3-yl)benzo[d]thiazole] showed an IC50 of 0.217 µM.
Molecule `Cc1cc(-c2ncccc2-c2ccc3[nH]ncc3c2)ccc1N` [Compound 90, 4-(3-(1H-Indazol-5-yl)pyridin-2-yl)-2-methylbenzenamine] has an IC50 of 2.61 µM.
With `Cc1cn2cc(-c3cccnc3-c3cccc(C(F)(F)F)c3)ccc2n1` [compound 534] the IC50 was 18 µM.
With `Cc1cc(-c2ncccc2-c2ccc3ncnc(Oc4cccnc4)c3c2)ccc1F` [compound 442, 6-(2-(4-Fluoro-3-methylphenyl)pyridin-3-yl)-4-(pyridin-3-yloxy)quinazoline] the IC50 was 0.366 µM.
`Nc1ncnc2ccc(-c3cccnc3-c3cccc(C4CC4)c3)cc12` [compound 411, 6-(2-(3-Cyclopropylphenyl)pyridin-3-yl)quinazolin-4-amine] was tested, and the IC50 was 0.0725 µM.
Work on `Cc1cccc(-c2ncccc2-c2ccn3nccc3c2)c1` [compound 757, 5-(2-(m-Tolyl)pyridin-3-yl)pyrazolo[1,5-a]pyridine] yielded an IC50 of 0.127 µM.
In the case of `Cc1cc(-c2nc3c(cc2-c2ccc4ncccc4c2)NC(=O)CO3)ccc1F` [compound 293, 6-(4-Fluoro-3-methylphenyl)-7-(quinolin-6-yl)-1H-pyrido[2,3-b] [1,4]oxazin-2(3H)-one], the IC50 is reported as 5.54 µM.
Molecule `Cc1cccc(-c2ncccc2-c2cnc3[nH]ncc3c2)c1` [Compound 79, 5-(2-m-Tolylpyridin-3-yl)-1H-pyrazolo[3,4-b]pyridine] has an IC50 of 0.264 µM.
`CCNC(=O)Nc1cnc(-c2ccc(F)c(C)c2)c(-c2ccc3nccn3c2)c1` [compound 220, 1-Ethyl-3-(6-(4-fluoro-3-methylphenyl)-5-(imidazo[1,2-a]pyridin-6-yl)pyridin-3-yl)urea] was tested, and the IC50 was 8.62 µM.
For `Cc1cc(-c2ncc(NC(=O)c3ccncc3)cc2-c2ccc3ncsc3c2)ccc1F` [compound 314, N-(5-(Benzo[d]thiazol-6-yl)-6-(4-fluoro-3-methylphenyl)pyridin-3-yl)isonicotinamide], the IC50 was 5.34 µM.
`Nc1ncnc2ccc(-c3cccnc3-c3cc(O)cc(F)c3)cc12` [compound 494, 3-(3-(4-Aminoquinazolin-6-yl)pyridin-2-yl)-5-fluorophenol] showed an IC50 of 0.107 µM.
With `Cc1c(Cl)cccc1-c1ncccc1-c1ccc2ncnn2c1` [compound 773, 6-(2-(3-Chloro-2-methylphenyl)pyridin-3-yl)-[1,2,4]triazolo[1,5-a]pyridine] the IC50 was 8.48 µM.
In the case of `Oc1cccc(-c2ncccc2-c2cnc3cn[nH]c3c2)c1` [Compound 144, 3-(3-(1H-Pyrazolo[4,3-b]pyridin-6-yl)pyridin-2-yl)phenol], the IC50 is reported as 9.39 µM.
`Cc1cccc(-c2ncccc2-c2ccc3ccncc3c2)c1` [Compound 210, 7-(2-m-Tolylpyridin-3-yl)isoquinoline] gave an IC50 of 12.7 µM.
`Fc1cc(F)c(-c2ncccc2-c2ccc3nccnc3n2)cc1Cl` [compound 743, 6-(2-(5-Chloro-2,4-difluorophenyl)pyridin-3-yl)pyrido[2,3-b]pyrazine] gave an IC50 of 0.638 µM.
`Cc1cc(-c2ncccc2-c2ccc3[nH]cnc(=O)c3c2)ccc1F` [compound 346, 6-(2-(4-Fluoro-3-methylphenyl)pyridin-3-yl)quinazolin-4(1H)-one] showed an IC50 of 0.193 µM.
Work on `Cc1cc(F)ccc1-c1ncccc1-c1ccc2ncnc(N)c2c1` [compound 467, 6-(2-(4-Fluoro-2-methylphenyl)pyridin-3-yl)quinazolin-4-amine] yielded an IC50 of 12.2 µM.
